Data reported in publication PMC8422859, “A Novel Oral Arginase 1/2 Inhibitor Enhances the Antitumor Effect of PD-1 Inhibition in Murine Experimental Gliomas by Altering the Immunosuppressive Environment” (Frontiers in Oncology, 2021).

Columns and labels:
plasma cytokines = experiment: Plasma cytokine analysis (Milliplex/MAGPIX); assay type: in vivo, mouse; conditions: blood collected 2 h after last administration of OAT-1746
Method: Measurement of pro- and anti-inflammatory cytokines was performed in blood from control and treated animals. Blood was quickly collected to EDTA containing tubes before perfusion and centrifuged (10,000 × g) for 10 min at room temperature. The plasma was collected and stored at -80°C. The levels of cytokines were measured using the Milliplex Kit (Merk-Millipore, Germany) according to the protocol. Cytokine levels were determined using the MAGPIX Multiplexing Instrument (Luminex, TX, USA) with XPonent software and analyzed with Milliplex Analyst 5.1 software. Results were expressed as pg/mL for each cytokine.

recombinant human ARG1 = target: T1, recombinant human ARG1 (Homo sapiens, UniProt P05089); experiment: Recombinant arginase activity assay, hARG1; assay type: biochemical; conditions: 1 h at 37°C, pH 7.4, 10 mM L-arginine, urea detection; read-out: Inhibition of recombinant hARG1: IC50
T1 construct: made in house; host or cells: E. coli
T1 sequence (P05089 1-322): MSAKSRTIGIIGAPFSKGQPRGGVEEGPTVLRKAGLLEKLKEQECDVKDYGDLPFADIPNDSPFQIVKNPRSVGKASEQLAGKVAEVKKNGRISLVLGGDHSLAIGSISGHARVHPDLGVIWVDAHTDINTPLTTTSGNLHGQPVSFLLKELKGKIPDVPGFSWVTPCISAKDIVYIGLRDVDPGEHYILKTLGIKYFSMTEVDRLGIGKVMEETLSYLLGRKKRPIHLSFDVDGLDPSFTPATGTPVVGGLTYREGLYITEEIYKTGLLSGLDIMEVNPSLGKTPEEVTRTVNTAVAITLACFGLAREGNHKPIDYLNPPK
Method: The inhibitory activity towards hARG1 and hARG2 enzymes was assessed using recombinant enzymes biosynthesized using a prokaryotic expression system (E. coli) and purified by fast protein liquid chromatography (FPLC). Briefly, recombinant enzymes were incubated with the tested compounds for 1 h at 37°C in the reaction buffer (100 mM sodium phosphate buffer, 130 mM NaCl, 1 mg/mL BSA, pH 7.4) containing substrate (10 mM L-arginine hydrochloride) and cofactor (200 µM MnCl2). The assay is based on the detection of urea, which is generated during the conversion of L-arginine into L-ornithine catalyzed by arginases. To visualize the product, we adding a mixture of reagent A (4 mM oPA, 50 mM boric acid, 1 M sulfuric acid, 0.03% Brij-35) and reagent B (4 mM NED, 50 mM boric acid, 1 M sulfuric acid, 0.03% Brij-35) in equal proportions. The absorbance was measured at 515 nm. The urea production in the absence of any tested compound was considered as maximal enzyme activity. The absorbance in the absence of arginase (background) was considered as zero activity. Two reference compounds OAT-81 (ABH, no. 222638-65-5) and OAT-90 (2-amino-6-borono-2-(2-(3-(2,4-dichlorophenyl)propyloamino)ethyl) hexanoic acid, and two novel inhibitors OAT-1617 and OAT-1746 (the last three synthesized at OncoArendi Therapeutics) were tested. Normalized values were analyzed using GraphPad Prism 7.0 software and the IC50 values were determined.

[1] = system: U87-MG human glioma cells; experiment: MTT viability assay, U87-MG; assay type: cell-based; conditions: 24 h
Method: Cell viability was assessed using MTT metabolism assay (U87 and BV2 cells) or MTS CellTiter 96® AQueous One Solution Cell Proliferation Assay (Promega) for the primary murine microglia cultures. Cells were cultured either in 96-well plates (U87 at density of 1×10^4) or 24-well plates (BV2 at density of 4×10^4 and primary microglia 8×10^4) with the indicated concentrations of the inhibitor or H2O (vehicle) for 24 h. MTT solution (Sigma Aldrich) was added to each well to a final concentration of 0.5 mg/mL. After 1 h of incubation at 37°C, water-insoluble dark blue formazan crystals were dissolved in DMSO. Optical densities (OD) were measured at 570 and 620 nm using a scanning multiwell spectrophotometer. The MTT assay was performed according to the manufacturer’s protocol. All measurements were carried out on three independent cell passages, in triplicates.

How did the “plasma levels of CCL2” value (plasma cytokines) turn out when `CN(C)C[C@@H]1CC[C@@H](CCB(O)O)C[C@]1(N)C(=O)O` [OAT-1746] was run?
The value was “higher levels”.

And the “plasma levels of CCL5” value (plasma cytokines)?
The value was “reduced”.

What about the IC50 (recombinant human ARG1) of the same molecule?
The IC50 was 28 nM.

What about the “reduction of the cell viability in U87-MG glioma cells” value ([1]; 1 mM) of the same molecule?
The value was 20%.

And the “viability of U87-MG cells (toxicity)” value ([1]; concentrations up to 1000 µM)?
Its value is “a decrease in the viability of U87-MG cells was observed at the highest concentration”.
